# Reference: patent US5919635A (ZymoGenetics, Inc., priority 1995, dated 1999)
# Assays:
# [1] = target: rat glucagon receptor (pLJ4 transfectants) (Rattus norvegicus, UniProt P30082); experiment: Intracellular calcium response (fura-2 imaging) of pLJ4 BHK transfectants; format: cell-based; settings: 100 nM final glucagon; resting value approximately 150 nM; from calibration experiments
# Experimental: E. Intracellular Calcium Concentration Determination
# Plasmid pLJ4 BHK transfectants seeded into 2 well coverglass chambers (NUNC) at 5×10^4 cells per chamber. The cells were grown for between one and three days under normal culture conditions in methotrexate selection medium. The medium was removed by aspiration, and the chambers were rinsed twice with 1 ml Imaging Buffer (Table 3). The cells were incubated for 30 minutes in the dark at room temperature with 0.5 ml of Fura-2 AM Solution (Table 3). After incubation, the Fura-2 AM Solution was removed, and the cells were rinsed with 1 ml Imaging Buffer three times. After the final rinse, 0.5 ml of buffer was left in each chamber. […]
# Imaging was performed on a Nikon Diaphot inverted fluorescence microscope equipped with a mercury arc lamp and 10× and 40× Nikon Fluor dry objective lenses. Experiments were controlled and analysed using a Sun SPARC II workstation and Inovision (Research Triangle Park, N.C.) RATIOTOOL software. […] Emission images were directed by a dichroic mirror (380 nm cutoff) to a Dage-MTI 72 CCD camera equipped with a Genesis II image intensifier and digitally recorded by the software.
# Intracellular calcium concentration was monitored by calculating a ratio of emission intensities at each of the two excitation wavelenths (340/380) for each pixel of the digital microscopic image field (512×480 pixels). […]
# [2] = tested on: Human Glucagon Receptor (pLJ6') in COS 7 cells; experiment: In situ ^125 I-glucagon binding with emulsion autoradiography, pLJ6'-transfected COS 7 cells; settings: 72 hours after transfection
# Experimental: (§1) To prepare the transfectants for the ^125 I-glucagon binding assay, the spent media were aspirated from the cells, and the cells were washed three times with cold (4° C.) PBS. After the final wash, the cells were covered with Binding Media (Table 2) and incubated for ten minutes at room temperature. The media were replaced with 0.5 ml of Binding Media containing 0.5 nM ^125 I-glucagon (Amersham receptor grade, specific activity 2000 Ci/mmole; Amersham). The cells were then rocked at 30° C. for one hour. […] The media were aspirated from the cells, and the cells were washed three times with cold (4° C.) PBS. After the final wash, the cells were fixed with 1 ml of 2.5% glutaraldehyde in PBS at room temperature for 20 minutes. The glutaraldehyde was removed, and the cells were rinsed three time with PBS. The slides were air dried for one hour at room temperature, dipped in liquid photographic emulsion (Eastman Kodak Co., Rochester, N.Y.) according the manufacturer's directions, and dried at room temperature in the dark for at least 30 minutes. The slides were then plated in a light-proof box for 72 hours at 4° C.
# Plasmid pLJ6' was transfected into COS 7 cells using a DEAE-dextran procedure described above. The cells were grown on glass chamber slides (as described in Example 3) for 72 hours after transfection.
# [3] = tested on: Human Glucagon Receptor (pLJ6') in BHK570 cells; experiment: In situ binding of iodinated glucagon, pLJ6'-transfected BHK570 clones
# Experimental: as §1
# Transfected cells were selected in the presence of G418 until single colonies were visible. Single colonies were cloned using cloning cylinders.
# Chain of rat glucagon receptor (pLJ4 transfectants) (P30082 27-485): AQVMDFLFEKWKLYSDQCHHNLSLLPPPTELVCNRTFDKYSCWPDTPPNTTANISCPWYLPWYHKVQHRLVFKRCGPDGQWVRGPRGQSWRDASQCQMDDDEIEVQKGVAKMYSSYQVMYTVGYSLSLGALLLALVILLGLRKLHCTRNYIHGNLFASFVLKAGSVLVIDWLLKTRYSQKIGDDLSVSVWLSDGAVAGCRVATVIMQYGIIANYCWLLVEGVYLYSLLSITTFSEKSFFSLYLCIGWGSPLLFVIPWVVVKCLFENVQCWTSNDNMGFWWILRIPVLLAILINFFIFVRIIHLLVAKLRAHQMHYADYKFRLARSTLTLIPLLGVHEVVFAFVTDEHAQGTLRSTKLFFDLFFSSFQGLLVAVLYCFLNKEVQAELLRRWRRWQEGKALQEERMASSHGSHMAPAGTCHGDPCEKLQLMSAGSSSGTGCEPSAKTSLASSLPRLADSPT
substance,measurement,setting,value
glucagon: 29 amino acid hormone produced by the alpha cells of pancreatic islets; human glucagon (Sigma),peak intracellular calcium concentration,[1],approximately 400 nM
same,cells transfected with pLJ6' that bound glucagon in a specific fashion,[2],Greater than 50%
same,binding of glucagon by clones (in words),[3],shown to bind glucagon
